Source: patent US20250134855A1, “CO[…] AND METHODS OF USING SAME” (LYKOS THERAPEUTICS, INC., priority 2022, published 2025)

Experiments:
[1] = tested on: participants with PTSD of moderate or greater severity; assay: MAPP2 Phase 3: Sheehan Disability Scale (SDS); format: in vivo, human
From the text: (§1) FIG. 36 and FIG. 37 show the time course of improvement in Clinician Administered PTSD Scale for DSM-5 (CAPS-5) total severity score versus placebo. Each show a treatment difference between MDMA and placebo after 3 medication sessions with psychological intervention. […] Between the second and third treatment sessions, the difference between the groups appeared to continue to increase in both studies. The primary efficacy measure was change from baseline in the CAPS-5 total severity score at 18 weeks, which was evaluated 2 months after the final dosing session. The CAPS-5 is a 30-item, clinician-rated scale used to assess severity of PTSD symptoms and diagnostic status according to DSM-5 criteria, as described herein. Scores on the CAPS 5 range from 0 to 80, with higher scores indicating more severe PTSD symptoms. In both studies, a secondary efficacy measure was change from baseline in Sheehan Disability Scale (SDS) mean item scores at 18 weeks. The modified SDS is a 3-item, clinician-rated scale measuring the degree of functional impairment in work, family, and social life. Scores on the SDS mean items range from 0 to 10, with higher scores indicating more functional impairment. In these studies, the efficacy assessments were administered by blinded independent raters 18 to 30 days after medication sessions 1 and 2.
(§2) MAPP2 was a Phase 3 randomized, placebo-controlled, 2-arm, double-blind, multi-site study conducted to investigate the efficacy and safety of MDMA-AT in participants with PTSD of moderate or greater severity. This study included 3 experimental sessions of therapy combined with either MDMA or placebo. During Experimental Session 1, participants received a split dose of 120 mg (80 mg+40 mg). Participants received an escalated split dose of 180 mg during Experimental Sessions 2 and 3 unless there were tolerability issues or the participant declined.
(§3) The primary outcome measure, the CAPS-5, evaluated changes in PTSD symptom severity and the secondary outcome measure, the SDS, evaluated changes in functional impairment. Both measures were assessed by a blinded centralized language-specific IR pool.
The de jure estimand of treatment efficacy was used to determine the effect of MDMA-AT on SDS total score in the mITT analysis set.

[2] = tested on: participants with PTSD of moderate or greater severity; assay: MAPP2 Phase 3: CAPS-5 total severity score; format: in vivo, human; conditions: for Change from Baseline in CAPS-5 Total Severity Score, LS Mean for Treatment Difference / Change from Baseline in CAPS-5 Total Severity Score, LS Mean / CAPS-5 Total Severity Score, Mean / CAPS-5 Total Severity Score, Median / Change from Baseline in CAPS-5 Total Severity Score, Mean / Change from Baseline in CAPS-5 Total Severity Score, Median / Loss of Diagnosis, % / Non-Responder, % / Remission, % / Responder (10-point reduction in CAPS-5 Total Severity Score), %: MAPP2, mITT; for Change from Baseline in CAPS-5 Total Severity Score, LS Mean for Treatment Difference: vs placebo; for Change from Baseline in CAPS-5 Total Severity Score, LS Mean / CAPS-5 Total Severity Score, Mean / CAPS-5 Total Severity Score, Median / Change from Baseline in CAPS-5 Total Severity Score, Mean / Change from Baseline in CAPS-5 Total Severity Score, Median: de jure
From the text: as §1, §2, §3
A de jure estimand of treatment efficacy was used to estimate the causal effect of MDMA-AT on PTSD symptom severity as measured by the change from Baseline to Visit 19 in CAPS-5 total severity scores in the mITT analysis set. […] Differences in treatment effect among demographic, dissociative sub-type, and overnight stay subgroups were not observed.

[3] = tested on: participants with severe PTSD; assay: MAPP1 Phase 3: Sheehan Disability Scale (SDS); format: in vivo, human
From the text: as §1
MAPP1 was a Phase 3 randomized, placebo-controlled, 2-arm, double-blind, multi-site study conducted to investigate the efficacy and safety of MDMA-AT in participants with severe PTSD. This study is also discussed in Mitchell et. al., Nature Medicine 2021, 27, 1025-1033. This study included 3 experimental sessions of therapy combined with either MDMA·HCl or placebo. During Experimental Session 1, participants received a split dose of 120 mg (80 mg+40 mg).
Participants received an escalated split dose of 180 mg during Experimental Sessions 2 and 3 unless there were tolerability issues or the participant declined. The primary outcome measure, the CAPS-5, evaluated changes in PTSD symptom severity and the secondary outcome measure, the SDS, evaluated changes in functional impairment. Both measures were assessed by a blinded centralized language-specific IR pool.
The de jure estimand of treatment efficacy was used to determine the effect of MDMA-AT on SDS total score.

[4] = target: bile salt export pump (BSEP) (Homo sapiens, UniProt O95342); assay: Transporter inhibition, BSEP
bile salt export pump (BSEP), sequence (O95342 whole entry): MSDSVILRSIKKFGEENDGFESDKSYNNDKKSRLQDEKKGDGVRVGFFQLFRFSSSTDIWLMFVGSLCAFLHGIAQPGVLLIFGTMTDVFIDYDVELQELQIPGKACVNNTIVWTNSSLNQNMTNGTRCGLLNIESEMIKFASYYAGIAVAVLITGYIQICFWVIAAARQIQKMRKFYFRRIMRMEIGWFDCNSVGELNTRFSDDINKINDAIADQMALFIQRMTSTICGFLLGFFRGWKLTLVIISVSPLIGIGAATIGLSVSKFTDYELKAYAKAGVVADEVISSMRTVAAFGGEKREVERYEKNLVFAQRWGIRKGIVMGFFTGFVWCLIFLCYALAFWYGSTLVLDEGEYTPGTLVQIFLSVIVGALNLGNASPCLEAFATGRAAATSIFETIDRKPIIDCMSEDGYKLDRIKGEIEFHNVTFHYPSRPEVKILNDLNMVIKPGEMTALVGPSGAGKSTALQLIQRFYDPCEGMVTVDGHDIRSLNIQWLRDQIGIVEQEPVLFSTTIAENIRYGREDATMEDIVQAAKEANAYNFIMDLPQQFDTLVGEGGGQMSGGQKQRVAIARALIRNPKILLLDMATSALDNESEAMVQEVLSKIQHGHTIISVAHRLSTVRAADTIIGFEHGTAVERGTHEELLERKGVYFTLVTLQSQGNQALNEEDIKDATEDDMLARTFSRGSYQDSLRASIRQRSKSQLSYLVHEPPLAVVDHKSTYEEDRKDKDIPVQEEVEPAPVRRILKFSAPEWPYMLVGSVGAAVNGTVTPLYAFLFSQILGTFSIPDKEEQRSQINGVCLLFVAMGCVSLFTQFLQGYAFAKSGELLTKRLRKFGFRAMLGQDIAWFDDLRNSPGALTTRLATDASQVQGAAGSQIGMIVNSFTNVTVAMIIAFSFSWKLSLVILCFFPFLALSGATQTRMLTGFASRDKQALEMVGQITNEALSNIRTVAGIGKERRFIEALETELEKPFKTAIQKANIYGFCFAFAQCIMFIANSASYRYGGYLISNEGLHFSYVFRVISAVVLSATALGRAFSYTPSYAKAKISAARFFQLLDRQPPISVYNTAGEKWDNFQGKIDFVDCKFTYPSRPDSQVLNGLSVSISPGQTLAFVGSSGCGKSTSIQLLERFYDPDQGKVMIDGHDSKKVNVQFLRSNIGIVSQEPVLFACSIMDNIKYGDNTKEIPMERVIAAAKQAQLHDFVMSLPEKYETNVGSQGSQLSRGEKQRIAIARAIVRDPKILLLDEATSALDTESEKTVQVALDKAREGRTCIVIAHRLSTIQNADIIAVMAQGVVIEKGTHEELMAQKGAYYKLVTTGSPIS

MATE1 = MATE1 (Homo sapiens, UniProt Q96FL8); assay: Transporter inhibition, MATE1; conditions: at supratherapeutic concentrations
MATE1, sequence (Q96FL8 whole entry): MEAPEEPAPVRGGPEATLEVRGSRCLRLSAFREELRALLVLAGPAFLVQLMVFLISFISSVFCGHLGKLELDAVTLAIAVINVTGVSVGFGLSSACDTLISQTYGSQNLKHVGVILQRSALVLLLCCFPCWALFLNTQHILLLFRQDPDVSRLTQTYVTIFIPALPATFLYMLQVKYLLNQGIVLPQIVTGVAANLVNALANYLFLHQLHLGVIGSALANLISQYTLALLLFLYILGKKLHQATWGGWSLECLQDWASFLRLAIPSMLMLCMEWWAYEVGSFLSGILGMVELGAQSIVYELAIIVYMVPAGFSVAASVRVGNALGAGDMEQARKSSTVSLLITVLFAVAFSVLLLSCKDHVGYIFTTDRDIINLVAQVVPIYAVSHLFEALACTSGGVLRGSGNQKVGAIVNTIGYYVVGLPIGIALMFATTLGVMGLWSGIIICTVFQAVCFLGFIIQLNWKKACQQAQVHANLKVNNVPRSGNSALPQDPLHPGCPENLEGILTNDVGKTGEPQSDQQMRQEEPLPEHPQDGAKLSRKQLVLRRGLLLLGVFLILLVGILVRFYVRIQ

healthy individuals = assay: Study MPKF: SE scores and C-SSRS; parameters: species or system human; conditions: in vivo
Protocol: Those increases from baseline were observed between 0.5 to 4 hours after dosing. […] The other scores remained relatively stable in comparison to baseline across the sessions.

[5] = MAPP2, mITT, Baseline (Visit 3)
[6] = MAPP2, mITT, Baseline to Visit 19
[7] = MAPP2, mITT, Visit 19 (Primary Endpoint)
[8] = MAPP2, MMRM, de jure estimand, mITT
[9] = end of treatment, 52 patients (study not given)
[10] = Baseline to Primary Outcome T4 (Visit 19)
[11] = Primary Outcome CAPS-5 T4 (Visit 19)
[12] = MAPP1, mITT, Baseline (Visit 3)
[13] = MAPP1, mITT, Baseline to Visit 19
[14] = MAPP1, mITT, Visit 19 (Primary Endpoint)
[15] = end of treatment, 42 patients (study not given)

CNC(C)Cc1ccc2c(c1)OCO2 (centres unmarked) [MDMA, 3,4-methylenedioxymethamphetamine]
SDS Total Score CFB, LSMean ([1]; MAPP2, mITT, MMRM, Visit 19): −3.31
SDS Total Score CFB, LSMean for Treatment Difference ([1]; MAPP2, mITT, MMRM, vs placebo with therapy, Visit 19): −1.20
SDS Total Score, Mean [1, 5]: 6.0
SDS Total Score, Median [1, 5]: 6.3
SDS Total Score CFB, Mean [1, 6]: −3.3
SDS Total Score CFB, Median [1, 6]: −4.0
SDS Total Score, Mean ([1]; MAPP2, mITT, Visit 8): 4.1
SDS Total Score, Median ([1]; MAPP2, mITT, Visit 8): 4.3
SDS Total Score, Mean ([1]; MAPP2, mITT, Visit 13): 2.9
SDS Total Score, Median ([1]; MAPP2, mITT, Visit 13): 2.7
SDS Total Score, Mean [1, 7]: 2.7
SDS Total Score, Median [1, 7]: 2.3
reduction in SDS total scores [1, 8]: −3.31
SDS Remission (SDS mean item score < 3) [1, 9]: (55.8) %
SDS Remission (SDS mean item score < 3), n [1, 9]: 29
SDS Responder (4 point or greater reduction from baseline SDS mean item score) [1, 9]: (53.8) %
SDS Responder (4 point or greater reduction from baseline SDS mean item score), n [1, 9]: 28
onset of treatment efficacy (CAPS-5 versus placebo) ([2]; FIG. 36 and FIG. 37, both studies): after the second session
Change from Baseline in CAPS-5 Total Severity Score, LS Mean for Treatment Difference ([2]; MMRM, T2 (Visit 8)): −4.14
Change from Baseline in CAPS-5 Total Severity Score, LS Mean for Treatment Difference ([2]; MMRM, T3 (Visit 13)): −7.98
Change from Baseline in CAPS-5 Total Severity Score, LS Mean for Treatment Difference ([2]; MMRM, T4 (Visit 19)): −8.91
Change from Baseline in CAPS-5 Total Severity Score, LS Mean ([2]; MMRM, Baseline to Primary Outcome T4 (Visit 19)): −23.69
Change from Baseline in CAPS-5 Total Severity Score, LS Mean ([2]; MMRM, Baseline to T2 (Visit 8)): −11.36
Change from Baseline in CAPS-5 Total Severity Score, LS Mean ([2]; MMRM, Baseline to T3 (Visit 13)): −18.58
CAPS-5 Total Severity Score, Mean ([2]; Baseline CAPS-5 T1 (Visit 3)): 39.4
CAPS-5 Total Severity Score, Median ([2]; Baseline CAPS-5 T1 (Visit 3)): 39.0
Change from Baseline in CAPS-5 Total Severity Score, Mean [2, 10]: −23.5
Change from Baseline in CAPS-5 Total Severity Score, Median [2, 10]: −25.0
Change from Baseline in CAPS-5 Total Severity Score, Mean ([2]; Baseline to T2 (Visit 8)): −11.3
Change from Baseline in CAPS-5 Total Severity Score, Median ([2]; Baseline to T2 (Visit 8)): −12.0
Change from Baseline in CAPS-5 Total Severity Score, Mean ([2]; Baseline to T3 (Visit 13)): −18.5
Change from Baseline in CAPS-5 Total Severity Score, Median ([2]; Baseline to T3 (Visit 13)): −20.0
CAPS-5 Total Severity Score, Mean ([2]; CAPS-5 T2 (Visit 8)): 28.1
CAPS-5 Total Severity Score, Median ([2]; CAPS-5 T2 (Visit 8)): 30.0
CAPS-5 Total Severity Score, Mean ([2]; CAPS-5 T3 (Visit 13)): 20.9
CAPS-5 Total Severity Score, Median ([2]; CAPS-5 T3 (Visit 13)): 19.0
CAPS-5 Total Severity Score, Mean [2, 11]: 15.8
CAPS-5 Total Severity Score, Median [2, 11]: 15.5
Loss of Diagnosis, % ([2]; CAPS-5 T2 (Visit 8)): (39.6) %
Non-Responder, % ([2]; CAPS-5 T2 (Visit 8)): (47.2) %
Remission, % ([2]; CAPS-5 T2 (Visit 8)): (9.4) %
Responder (10-point reduction in CAPS-5 Total Severity Score), % ([2]; CAPS-5 T2 (Visit 8)): (52.8) %
Loss of Diagnosis, % ([2]; CAPS-5 T3 (Visit 13)): (60.4) %
Non-Responder, % ([2]; CAPS-5 T3 (Visit 13)): (22.6) %
Remission, % ([2]; CAPS-5 T3 (Visit 13)): (26.4) %
Responder (10-point reduction in CAPS-5 Total Severity Score), % ([2]; CAPS-5 T3 (Visit 13)): (77.4) %
Loss of Diagnosis, % [2, 11]: (71.2) %
Non-Responder, % [2, 11]: (13.5) %
Remission, % [2, 11]: (46.2) %
Responder (10-point reduction in CAPS-5 Total Severity Score), % [2, 11]: (86.5) %
change from Baseline to Visit 19 in CAPS-5 total severity scores [2, 8]: −23.69
no longer met PTSD diagnostic criteria ([2]; MAPP2, Visit 19): 71.2%
remission (CAPS-5 ≤11 and no longer meeting PTSD diagnostic criteria) ([2]; MAPP2, Visit 19): 46.2%
responders (10-point reduction in CAPS-5 total severity score) ([2]; MAPP2, Visit 19): 86.5%
SDS Total Score CFB, LSMean ([3]; MAPP1, mITT, MMRM, Visit 19): −3.15
SDS Total Score CFB, LSMean for Treatment Difference ([3]; MAPP1, mITT, MMRM, vs placebo with therapy, Visit 19): −1.36
SDS Total Score, Mean [3, 12]: 6.8
SDS Total Score, Median [3, 12]: 6.8
SDS Total Score CFB, Mean [3, 13]: −3.1
SDS Total Score CFB, Median [3, 13]: −2.5
SDS Total Score, Mean ([3]; MAPP1, mITT, Visit 8): 5.0
SDS Total Score, Median ([3]; MAPP1, mITT, Visit 8): 5.0
SDS Total Score, Mean ([3]; MAPP1, mITT, Visit 13): 4.1
SDS Total Score, Median ([3]; MAPP1, mITT, Visit 13): 4.7
SDS Total Score, Mean [3, 14]: 3.8
SDS Total Score, Median [3, 14]: 3.4
reduction in SDS total scores ([3]; MAPP1, MMRM, de jure estimand): −3.15
SDS Remission (SDS mean item score < 3) [3, 15]: (42.9) %
SDS Remission (SDS mean item score < 3), n [3, 15]: 18
SDS Responder (4 point or greater reduction from baseline SDS mean item score) [3, 15]: (38.1) %
SDS Responder (4 point or greater reduction from baseline SDS mean item score), n [3, 15]: 16
inhibition of BSEP [4]: not an inhibitor
inhibition of MATE1 (MATE1): inhibits
C-SSRS scores (healthy individuals): No abnormal C-SSRS scores
